How the values were obtained:
[1] = test system: microglia; assay: Phagolysosomal degradation of synaptosomes and dead neurons by microglia; format: cell-based; conditions: SHIP1-dependent manner
Text: New small molecule SHIP1 activators are needed to explore the effects of these molecules in IBD and AD model systems to define the role of SHIP in these disorders. […] The K306 structure is related to a series of sulfonamide based endothelial lipase inhibitors. As the molecule came from screening, no information was available about structure activity relationships in this SHIP1 activator. Sulfonamides have been used previously as phosphate mimics in the development of phosphatase inhibitors however, so it is possible that one of the sulfonamides in the K306 structure is mimicking the one of the phosphates on PI(3,4)P2, the endogenous ligand for allosteric activation of SHIP1. […] Given that K306 provides a new class of SHIP1 activators with a unique binding site that could have implications in Crohn's disease and Alzheimer's disease, synthetic studies were initiated on the structure.

[2] = target: T1, recombinant human truncated SHIP1 (tSHIP1) (Homo sapiens, UniProt Q92835); assay: Malachite Green Phosphatase Release Assay (SHIP1 phosphatase activity); format: biochemical; conditions: for SHIP1 activation, increase in the malachite green assay: initial testing
T1 construct: tSHIP1 (SHIP1, residues 397-864) was amplified from pET24TEV-tSHIP1; His tag; made in house; host or cells: E. coli BL21
T1 sequence (Q92835 397-864): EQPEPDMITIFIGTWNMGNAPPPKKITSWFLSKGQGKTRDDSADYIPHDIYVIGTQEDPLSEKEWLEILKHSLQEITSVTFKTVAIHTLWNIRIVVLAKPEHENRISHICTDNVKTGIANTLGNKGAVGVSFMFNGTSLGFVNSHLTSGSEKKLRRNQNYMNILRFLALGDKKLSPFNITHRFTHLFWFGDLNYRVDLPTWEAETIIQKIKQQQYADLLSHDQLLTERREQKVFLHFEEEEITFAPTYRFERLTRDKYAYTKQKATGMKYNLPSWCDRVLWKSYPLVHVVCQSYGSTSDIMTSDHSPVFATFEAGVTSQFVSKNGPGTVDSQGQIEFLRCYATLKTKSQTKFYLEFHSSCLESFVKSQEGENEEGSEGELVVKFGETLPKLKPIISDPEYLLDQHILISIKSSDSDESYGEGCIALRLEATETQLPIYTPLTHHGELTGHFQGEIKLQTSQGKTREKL
Summary of the method: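 Truncated SHIP1 (residues 397-864, His-tagged, E. coli-expressed) was preincubated 2 min at room temperature with compound in pH 7.4 Hepes buffer with MgCl2/EDTA. 100 μM PI(3,4,5)P3-diC8 was then added and the reaction run 20 min at 37 °C. Phosphate release was read with malachite green at 620 nm, as % of DMSO control activity.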

[3] = Half-life in vivo; conditions: mice
Text: This is believed to be due to rapid oxidation of the sulfur functional groups in K306 by cytochrome P450 enzymes which are prevalent in mice. […] The thiophene is still a concern, however, as this heterocycle is known to undergo oxidation by CYP enzymes and can lead to toxic metabolites.

- Phosphatase activity in the Malachite Green Assay, analog concentration 125 μM ([2]; 125 μM analog, 100 μM PI(3,4,5)P3-diC8 substrate, normalized to vehicle control (DMSO) = 100%): 95%
- Phosphatase activity in the Malachite Green Assay, analog concentration 250 μM ([2]; 250 μM analog, 100 μM PI(3,4,5)P3-diC8 substrate, normalized to vehicle control (DMSO) = 100%): 106%
- Phosphatase activity in the Malachite Green Assay, analog concentration 500 μM ([2]; 500 μM analog, 100 μM PI(3,4,5)P3-diC8 substrate, normalized to vehicle control (DMSO) = 100%, >100% activation, <100% inhibition): 133%
- SHIP1 activation, increase in the malachite green assay ([2]; tested at 250 μM): 6%
- SHIP1 activation, increase in the malachite green assay ([2]; tested at 500 μM): 33%
- Half-life in vivo [3]: short-half life in vivo
Structure (SMILES): Cc1sc(S(=O)(=O)N2CCSCC2)cc1NC(=O)CNS(=O)(=O)c1ccc(F)cc1 [Compound K306, 2-(4-Fluorobenzenesulfonamido)-N-[2-methyl-5-(thiomorpholine-4-sulfonyl)thiophen-3-yl]acetamide]
- Phagolysosomal degradation of synaptosomes and dead neurons by microglia [1]: enhance phagolysosomal degradation
